Series [1] concerns the target T1, D-amino acid oxidase (DAAO) (Sus scrofa, UniProt P00371).
T1 construct: gene DAO; native, purified from pig kidneys
In words: H2O2 production (HRP / o-dianisidine) and semicarbazone formation. In kind it is biochemical. The conditions noted are these: 50 mM sodium pyrophosphate pH 8.7, 25 °C.

The target of another series is T2, UK114 (Capra hircus, UniProt P80601).
T2 construct: gene RIDA; full length 137 residues, recombinant from E. coli (pET-15b), N-terminal His-tag cut by thrombin leaving GSH before Met1; homotrimer
T2 sequence (P80601 1-137): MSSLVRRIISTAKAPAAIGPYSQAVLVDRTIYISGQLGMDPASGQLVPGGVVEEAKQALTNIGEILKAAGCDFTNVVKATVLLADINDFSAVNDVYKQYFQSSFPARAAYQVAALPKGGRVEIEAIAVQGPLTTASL
Description: decrease of semicarbazone formation rate, […] nm, imino acid generated in situ. In kind it is biochemical. The conditions noted are these: 50 mM sodium pyrophosphate pH 8.7, 25 °C, 10 mM semicarbazide, catalase.

Series [2] concerns the molecule itself. Description: SEC; analytical gel filtration on a calibrated Superdex 75 (10/30) column equilibrated with 0.9% NaCl; standards BSA dimer, BSA monomer, carbonic anhydrase, cytochrome c. (In general: In gel filtration, larger molecules generally elute earlier.)

T1 sequence (P00371 whole entry): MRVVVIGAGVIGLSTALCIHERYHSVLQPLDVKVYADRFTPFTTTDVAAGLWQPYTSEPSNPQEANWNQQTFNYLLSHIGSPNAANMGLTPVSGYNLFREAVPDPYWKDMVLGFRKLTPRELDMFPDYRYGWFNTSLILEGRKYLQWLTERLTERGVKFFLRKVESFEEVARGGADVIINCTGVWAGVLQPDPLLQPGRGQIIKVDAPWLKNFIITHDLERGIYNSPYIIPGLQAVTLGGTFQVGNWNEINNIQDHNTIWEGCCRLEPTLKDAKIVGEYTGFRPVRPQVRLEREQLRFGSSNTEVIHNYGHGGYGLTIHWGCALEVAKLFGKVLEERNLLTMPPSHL

Consider `CC(C)C[C@@H](N)C(=O)O` [D-Leu], for which the “H2O2 production (HRP / o-dianisidine) and semicarbazone formation” value in series [1] is given as “Semicarbazone formation was observed using D-Ala, D-Leu, but not D-Ser, D-Thr, or D-Lys”. With `CC(C)CC(=N)C(=O)O` [imino acid derived from Leu], the “decrease of semicarbazone formation rate, 248 nm, imino acid generated in situ” value on UK114 (imino acid from 5 mM L-Leu + LAAO or D-Leu + DAAO) is listed as “UK114 activity using the imino acid produced by DAAO from D-Leu was indistinguishable”. For `CC(=N)C(=O)O` [2-iminopropionate], the “decrease of semicarbazone formation rate, 248 nm, imino acid generated in situ” value at UK114 (imino acid from 5 mM L-Ala + LAAO or D-Ala + DAAO) is on record as “the highest specificity is indeed observed with 2-iminopyruvate (2-iminopropionate)”.

B1: recombinant goat UK114 (Capra hircus), thrombin-cleaved (enzyme, Capra hircus (goat))
chain: GSHMSSLVRRIISTAKAPAAIGPYSQAVLVDRTIYISGQLGMDPASGQLVPGGVVEEAKQALTNIGEILKAAGCDFTNVVKATVLLADINDFSAVNDVYKQYFQSSFPARAAYQVAALPKGGRVEIEAIAVQGPLTTASL
notes: they precede the initiator methionine of UK114; also called RidA; not shown: His6, N-terminal, cleaved
One may read the stoichiometry N as a count of units in the complex or per binding partner. Regarding B1, in series [2], the “stoichiometry N” value came out at 3.
